Measured values: publication PMC4184567, “Glucuronidation of drugs in humanized UDP-glucuronosyltransferase 1 mice: Similarity with glucuronidation in human liver microsomes” (Pharmacology Research & Perspectives, 2013)
Each block holds one molecule with its values, some of them ahead of it.

Experiments:
[1] = test system: furosemide glucuronidation in mouse liver microsomes; assay: Inhibition of furosemide glucuronidation in regular mouse liver microsomes; format: in vitro ADME; details: regular mice liver microsomes, 500 μmol/L AZT
Description: (§1) IC50 values were directly determined from linear regression.

[2] = test system: UGT (furosemide glucuronidation); assay: as above; format: in vitro ADME; details: CD-1, mouse, pH 7.4, probe furosemide; regular mice liver microsomes
Description: as §1

[3] = test system: UGT (furosemide glucuronidation); assay: Inhibition of furosemide glucuronidation in liver microsomes from hUGT1 mice; format: in vitro ADME, humanized UGT1 mice; details: male, Tg(UGT1A1*28)Ugt1−/− (hUGT1), C57BL/6 background, mouse (humanized UGT1), pH 7.4, probe furosemide; humanized UGT1 mice liver microsomes
Description: as §1

[4] = test system: furosemide glucuronidation in liver microsomes from hUGT1 mice; assay: as above; format: in vitro ADME, humanized UGT1 mice; details: hUGT1 mice liver microsomes, 500 μmol/L AZT
Description: as §1

[5] = test system: furosemide glucuronidation in human liver microsomes; assay: Inhibition of furosemide glucuronidation in human liver microsomes; format: in vitro ADME; details: 500 μmol/L AZT
Description: as §1

[6] = test system: UGT (furosemide glucuronidation); assay: as above; format: in vitro ADME; details: pH 7.4, probe furosemide
Description: as §1

[7] = test system: UGT activities in mouse liver microsomes; design: method as in Court and Greenblatt [1997]; details: ref Court and Greenblatt [1997]; cited from earlier work
[8] = test system: UGT activities in human liver microsomes; design: method as in Court and Greenblatt [1997]; details: ref Court and Greenblatt [1997]; cited from earlier work
[9] = test system: liver microsomes from hUGT1 mice
[10] = test system: mouse liver microsomes
[11] = test system: human liver microsomes
[12] = test system: furosemide glucuronidation in human liver microsomes; details: 0–0.5% BSA
[13] = test system: furosemide glucuronidation in liver microsomes from control mice; details: 0–0.5% BSA
[14] = test system: furosemide glucuronidation in liver microsomes from hUGT1 mice; details: 0–0.5% BSA

Molecule: Cc1cn([C@H]2C[C@H](N=[N+]=[N-])[C@@H](CO)O2)c(=O)[nH]c1=O [AZT, 3′-azido-3′-deoxythymidine]
Inhibition of furosemide glucuronidation (in words) [1]: did not inhibit
IC50 at 30 min [2]: > 500 µM
IC50 at 30 min [3]: > 500 µM
Inhibition of furosemide glucuronidation (in words) [4]: did not inhibit
Inhibition of furosemide glucuronidation (in words) [5]: did not inhibit
IC50 at 30 min [6]: > 500 µM

Molecule: C[C@H](CCC(=O)NCCC[N+](C)(C)CCCS(=O)(=O)[O-])[C@H]1CC[C@H]2[C@@H]3[C@H](O)C[C@@H]4C[C@H](O)CC[C@]4(C)[C@H]3C[C@H](O)[C@]12C [CHAPS]
Increase of UGT activity by detergent [7]: 439–563%
Increase of UGT activities by detergent [8]: 9–66%

Molecule: CN1CCN(CCCN2c3ccccc3Sc3ccc(C(F)(F)F)cc32)CC1 [trifluoperazine]
N-glucuronide formation [9]: lesser but detectable amount
N-glucuronide formation [10]: not detected
N-glucuronide formation [11]: observed

Molecule: bovine serum albumin [BSA]
Effect of BSA on furosemide glucuronidation [12]: concentration-dependently activated
Effect of BSA on furosemide glucuronidation [13]: similarly observed
Effect of BSA on furosemide glucuronidation [14]: similarly observed

Other lines, results leading:

IC50 at 30 min [2]: 111 µM
IC50 at 30 min [3]: 32.5 µM
IC50 at 30 min [6]: 31.7 µM
Molecule: C[C@]12CC[C@@H]3c4ccc(O)cc4CC[C@H]3[C@@H]1CC[C@@H]2O [estradiol]

IC50 at 30 min [2]: 450 µM
IC50 at 30 min [3]: 610 µM
IC50 at 30 min [6]: > 5000 µM
Molecule: NCCc1c[nH]c2ccc(O)cc12 [serotonin]
